Measured values from PubChem BioAssay (NCI).
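Tested at 5 concentrations; 48 h exposure; 96-well plates; endpoints linearly interpolated, else capped at highest concentration. TGI is the concentration that stops growth completely.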

Tests used:
Assay in all cases: NCI-60 cell line screen, 48 h
HS 578T breast = tested on: HS 578T breast
HT29 colon = tested on: HT29 colon
NCI-H23 lung = tested on: NCI-H23 lung
CCRF-CEM leukemia = tested on: CCRF-CEM leukemia
SK-MEL-5 melanoma = tested on: SK-MEL-5 melanoma
MDA-N = tested on: MDA-N
NCI/ADR-RES ovarian = tested on: NCI/ADR-RES ovarian
K-562 leukemia = tested on: K-562 leukemia
UACC-257 melanoma = tested on: UACC-257 melanoma
MALME-3M melanoma = tested on: MALME-3M melanoma
UACC-62 melanoma = tested on: UACC-62 melanoma
SF-268 CNS = tested on: SF-268 CNS
NCI-H522 lung = tested on: NCI-H522 lung
MCF7 breast = tested on: MCF7 breast
SF-295 CNS = tested on: SF-295 CNS
RXF 393 renal = tested on: RXF 393 renal
DU-145 prostate = tested on: DU-145 prostate
IGROV1 ovarian = tested on: IGROV1 ovarian
PC-3 prostate = tested on: PC-3 prostate
SNB-75 CNS = tested on: SNB-75 CNS
SF-539 CNS = tested on: SF-539 CNS
A549 NSCLC = tested on: A549 NSCLC
A498 renal = tested on: A498 renal
TK-10 renal = tested on: TK-10 renal
M14 melanoma = tested on: M14 melanoma
EKVX NSCLC = tested on: EKVX NSCLC
OVCAR-3 ovarian = tested on: OVCAR-3 ovarian
HCT-116 colon = tested on: HCT-116 colon
SR leukemia = tested on: SR leukemia
MDA-MB-231 breast = tested on: MDA-MB-231 breast
SW-620 colon = tested on: SW-620 colon
U251 CNS = tested on: U251 CNS
NCI-H226 lung = tested on: NCI-H226 lung
T-47D breast = tested on: T-47D breast
COLO 205 colon = tested on: COLO 205 colon
HOP-92 NSCLC = tested on: HOP-92 NSCLC
OVCAR-8 ovarian = tested on: OVCAR-8 ovarian
SK-OV-3 ovarian = tested on: SK-OV-3 ovarian
SNB-19 CNS = tested on: SNB-19 CNS
HL-60(TB) leukemia = tested on: HL-60(TB) leukemia
MOLT-4 leukemia = tested on: MOLT-4 leukemia
BT-549 breast = tested on: BT-549 breast
CAKI-1 renal = tested on: CAKI-1 renal
ACHN renal = tested on: ACHN renal
RPMI-8226 leukemia = tested on: RPMI-8226 leukemia
HCT-15 colon = tested on: HCT-15 colon
LOX IMVI melanoma = tested on: LOX IMVI melanoma
OVCAR-5 ovarian = tested on: OVCAR-5 ovarian
MDA-MB-435 = tested on: MDA-MB-435
HOP-62 NSCLC = tested on: HOP-62 NSCLC
UO-31 renal = tested on: UO-31 renal
SK-MEL-2 melanoma = tested on: SK-MEL-2 melanoma
786-0 renal = tested on: 786-0 renal
SN12C renal = tested on: SN12C renal
OVCAR-4 ovarian = tested on: OVCAR-4 ovarian
KM12 colon = tested on: KM12 colon
HCC-2998 colon = tested on: HCC-2998 colon
SK-MEL-28 melanoma = tested on: SK-MEL-28 melanoma
NCI-H460 lung = tested on: NCI-H460 lung

## CC(=O)O[C@H]1CC[C@@]2(C)C(=CC[C@@H]3[C@@H]2CC[C@](C)(c2nnc(C)o2)[C@H]3CC#N)C1
HS 578T breast
  TGI: > 100 µM
HT29 colon
  TGI: > 100 µM
NCI-H23 lung
  TGI: > 100 µM
CCRF-CEM leukemia
  TGI: > 100 µM
SK-MEL-5 melanoma
  TGI: > 100 µM
MDA-N
  TGI: > 100 µM
NCI/ADR-RES ovarian
  TGI: > 100 µM
K-562 leukemia
  TGI: > 100 µM
UACC-257 melanoma
  TGI: > 100 µM
MALME-3M melanoma
  TGI: > 100 µM
UACC-62 melanoma
  TGI: > 100 µM
SF-268 CNS
  TGI: > 100 µM
NCI-H522 lung
  TGI: > 100 µM
MCF7 breast
  TGI: > 100 µM
SF-295 CNS
  TGI: > 100 µM
RXF 393 renal
  TGI: > 100 µM
DU-145 prostate
  TGI: > 100 µM
IGROV1 ovarian
  TGI: > 100 µM
PC-3 prostate
  TGI: > 100 µM
SNB-75 CNS
  TGI: > 100 µM
SF-539 CNS
  TGI: > 100 µM
A549 NSCLC
  TGI: > 100 µM
A498 renal
  TGI: > 100 µM
TK-10 renal
  TGI: > 100 µM
M14 melanoma
  TGI: > 100 µM
EKVX NSCLC
  TGI: > 100 µM
OVCAR-3 ovarian
  TGI: > 100 µM
HCT-116 colon
  TGI: > 100 µM
SR leukemia
  TGI: > 100 µM
MDA-MB-231 breast
  TGI: > 100 µM
SW-620 colon
  TGI: > 100 µM
U251 CNS
  TGI: > 100 µM
NCI-H226 lung
  TGI: > 100 µM
T-47D breast
  TGI: > 100 µM
COLO 205 colon
  TGI: > 100 µM
HOP-92 NSCLC
  TGI: > 100 µM
OVCAR-8 ovarian
  TGI: > 100 µM
SK-OV-3 ovarian
  TGI: > 100 µM
SNB-19 CNS
  TGI: > 100 µM
HL-60(TB) leukemia
  TGI: > 100 µM
MOLT-4 leukemia
  TGI: > 100 µM
BT-549 breast
  TGI: > 100 µM
CAKI-1 renal
  TGI: > 100 µM
ACHN renal
  TGI: > 100 µM
RPMI-8226 leukemia
  TGI: > 100 µM
HCT-15 colon
  TGI: > 100 µM
LOX IMVI melanoma
  TGI: > 100 µM
OVCAR-5 ovarian
  TGI: > 100 µM
MDA-MB-435
  TGI: > 100 µM
HOP-62 NSCLC
  TGI: > 100 µM
UO-31 renal
  TGI: > 100 µM
SK-MEL-2 melanoma
  TGI: > 100 µM
786-0 renal
  TGI: > 100 µM
SN12C renal
  TGI: > 100 µM
OVCAR-4 ovarian
  TGI: > 100 µM
KM12 colon
  TGI: > 100 µM

## NS(=O)(=O)c1ccc(N=C2C(=O)Nc3ccccc32)cc1
HS 578T breast
  TGI: > 100 µM
HT29 colon
  TGI: > 100 µM
HCC-2998 colon
  TGI: > 100 µM
NCI-H23 lung
  TGI: > 100 µM
CCRF-CEM leukemia
  TGI: > 100 µM
SK-MEL-5 melanoma
  TGI: > 100 µM
MDA-N
  TGI: > 100 µM
NCI/ADR-RES ovarian
  TGI: > 100 µM
K-562 leukemia
  TGI: > 100 µM
UACC-257 melanoma
  TGI: > 100 µM
MALME-3M melanoma
  TGI: > 100 µM
UACC-62 melanoma
  TGI: > 100 µM
SF-268 CNS
  TGI: > 100 µM
NCI-H522 lung
  TGI: > 100 µM
SK-MEL-28 melanoma
  TGI: > 100 µM
MCF7 breast
  TGI: > 100 µM
SF-295 CNS
  TGI: > 100 µM
RXF 393 renal
  TGI: > 100 µM
DU-145 prostate
  TGI: > 100 µM
IGROV1 ovarian
  TGI: > 100 µM
PC-3 prostate
  TGI: > 100 µM
SNB-75 CNS
  TGI: > 100 µM
A549 NSCLC
  TGI: > 100 µM
A498 renal
  TGI: > 100 µM
NCI-H460 lung
  TGI: > 100 µM
TK-10 renal
  TGI: > 100 µM
M14 melanoma
  TGI: > 100 µM
EKVX NSCLC
  TGI: > 100 µM
OVCAR-3 ovarian
  TGI: > 100 µM
HCT-116 colon
  TGI: > 100 µM
SR leukemia
  TGI: > 100 µM
MDA-MB-231 breast
  TGI: > 100 µM
SW-620 colon
  TGI: > 100 µM
U251 CNS
  TGI: > 100 µM
NCI-H226 lung
  TGI: > 100 µM
T-47D breast
  TGI: > 100 µM
COLO 205 colon
  TGI: 98.4 µM
HOP-92 NSCLC
  TGI: > 100 µM
OVCAR-8 ovarian
  TGI: > 100 µM
SK-OV-3 ovarian
  TGI: > 100 µM
SNB-19 CNS
  TGI: > 100 µM
HL-60(TB) leukemia
  TGI: > 100 µM
MOLT-4 leukemia
  TGI: > 100 µM
BT-549 breast
  TGI: > 100 µM
CAKI-1 renal
  TGI: > 100 µM
ACHN renal
  TGI: > 100 µM
RPMI-8226 leukemia
  TGI: > 100 µM
HCT-15 colon
  TGI: > 100 µM
LOX IMVI melanoma
  TGI: > 100 µM
OVCAR-5 ovarian
  TGI: > 100 µM
MDA-MB-435
  TGI: 72.7 µM
HOP-62 NSCLC
  TGI: > 100 µM
UO-31 renal
  TGI: > 100 µM
SK-MEL-2 melanoma
  TGI: > 100 µM
786-0 renal
  TGI: > 100 µM
SN12C renal
  TGI: > 100 µM
OVCAR-4 ovarian
  TGI: > 100 µM
KM12 colon
  TGI: > 100 µM
